Source: US20180153995A1, “USE OF ANTIMICROBIAL POLYMERS FOR RE-SENSITIZATION OF MICROORGANISMS UPON EMERGENCE OF RESISTANCE TO ANTI-MICROBIAL AGENTS” (Technion Research & Development Foundation Limited, priority 2008, published 2018)
Where two headings read alike, the source gives them in different places.

Assays:
S. aureus 43300 [1] = experiment: Antibiotic MIC by microdilution with or without sub-MIC polymer; assay type: cell-based, Staphylococcus aureus
E. coli 16327 = experiment: microbe, parasite or virus in culture
[2] = tested on: E. coli K-12 efflux knockout mutant; assay type: cell-based, Escherichia coli; details: E. coli AG100A (efflux−)
In short: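 Broth microdilution, inocula 10^5 bacteria/ml, 24 h at 37 °C. Growth read as OD620 against calibration standards.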

S. aureus 17314 = experiment: Antibiotic MIC by microdilution with or without sub-MIC polymer; assay type: cell-based, Staphylococcus aureus; details: S. aureus 17314
S. maltophila 748 = experiment: as above; assay type: cell-based, Stenotrophomonas maltophila
S. aureus 43300 [3] = experiment: as above; assay type: cell-based, Staphylococcus aureus; details: no polymer (None)
Experimental: MICs were determined by microdilution susceptibility testing in 96-well plates (by Nunc) using inocula of 10^5 bacteria per ml. Cell populations were evaluated by optical density measurements at 620 nm and were calibrated against a set of standards. Hundred (100) μl of a bacterial suspension were added to 100 μl of culture medium (control) or to 100 μl of culture medium containing various polymer concentrations in 2-fold serial dilutions. Inhibition of proliferation was determined by optical density measurements at 620 nm after an incubation period of 24 hours at 37° C.
Table 8 below presents the MIC values of antibiotics in presence or absence of C12(5-ene)KKNC12KNH2 (SEQ ID NO: 2) at sub-MIC levels of the polymer, as measured for the S. aureus strains 43300 (ATCC), 15819 (clinical isolate), 15877 (clinical isolate) and 15852 (clinical isolate). MICs were determined by microdilution susceptibility testing in 96-well plates (Nunc) using inocula of 10^5 bacteria per ml. One hundred (100) μl of a bacterial suspension were added to 100 μl of culture medium (control) or to 100 μl of culture medium containing various antibiotic and C12(5-ene)KKNC12KNH2 (SEQ ID NO: 2) concentrations in 2-fold serial dilutions. Inhibition of proliferation was determined by optical density measurements at 620 nm after an incubation period of 24 hours at 37° C.
100 μl of a bacterial suspension were added to 100 μl of culture medium (control) or to 100 μl of culture medium containing various antibiotic and C14(9-ene)KKNC12KNH2 (SEQ ID NO: 5) concentrations in 2-fold serial dilutions. Inhibition of proliferation was determined by optical density measurements at 620 nm after an incubation period of 24 hours at 37° C.

MRSA 15903 = experiment: microbe, parasite or virus in culture; assay type: cell-based, Staphylococcus aureus
In short: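 Two-agent combinations tested against MRSA 15903; FIC index = A/MICA + B/MICB, using MICs in combination versus alone. Below 0.5 read as clear re-sensitizing, 0.5–4 marginal or null, above 4 antagonism.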

S. aureus 15819 = experiment: Antibiotic MIC by microdilution with or without sub-MIC polymer; assay type: cell-based, Staphylococcus aureus; details: S. aureus 15819
E. coli 14182 = experiment: as above; assay type: cell-based, Escherichia coli
[4] = +¼ MIC (1.6 μM) C12K(KNC12K)2NH2
[5] = +½ MIC (3.12 μM) C12K(KNC12K)2NH2
[6] = +⅓ MIC (2.1 μM) C12K(KNC12K)2NH2
[7] = +¼ MIC (1.6 μM) C12K(KNC12K)3NH2
[8] = +⅓ MIC (2.1 μM) C12K(KNC12K)3NH2

CN(C)[C@@H]1C(O)=C(C(N)=O)C(=O)[C@@]2(O)C(O)=C3C(=O)c4c(O)cccc4[C@@](C)(O)[C@H]3C[C@@H]12 [Tetracycline, tetracycline]
Antibiotic MIC (S. aureus 43300 [1]; [4]): 0.5 µg/mL
Antibiotic MIC (S. aureus 43300 [1]; +¼ MIC (1.6 μM) C12KKNC12KNH2): 0.5 µg/mL
Antibiotic MIC (S. aureus 43300 [1]; +¼ MIC (1.6 μM) C16(9-ene)KKNC12KNH2): 0.25 µg/mL
Antibiotic MIC (S. aureus 43300 [1]; [5]): 0.5 µg/mL
Antibiotic MIC (S. aureus 43300 [1]; +½ MIC (3.12 μM) C12KKNC12KNH2): 0.5 µg/mL
Antibiotic MIC (S. aureus 43300 [1]; [6]): 0.5 µg/mL
Antibiotic MIC (S. aureus 43300 [1]; +⅓ MIC (2.1 μM) C12KKNC12KNH2): 0.5 µg/mL
Antibiotic MIC (E. coli 16327; E. coli 16327, +½ MIC (3.12 μM) C14(9-ene)KKNC12KNH2): 32 µg/mL
MIC, ½ + MIC OAK (E. coli 16327; E. coli U16327, with C12K(KNC10K)3NH2 (SEQ ID NO: 10) at ½ of its MIC): 64 µg/mL
Antibiotic MIC in presence of C12K(NC8K)7NH2 (SEQ ID NO: 4), +½ MIC (E. coli 16327; E. coli U-16327, polymer at ½ of its MIC): 32 µg/mL
Antibiotic MIC, None ([2]; antibiotic alone (Table 16)): 0.5 µg/mL
Antibiotic MIC, None ([2]; antibiotic alone (Table 17)): 0.5 µg/mL
Antibiotic MIC in presence of C12K(NC8K)7NH2 (SEQ ID NO: 4), +¼ MIC ([2]; polymer at ¼ of its MIC (Table 16)): 0.5 µg/mL
Antibiotic MIC in presence of C12K(NC8K)7NH2 (SEQ ID NO: 4), +½ MIC ([2]; polymer at ½ of its MIC (Table 16)): 0.25 to 0.5 µg/mL
Antibiotic MIC in presence of C12K(NC8K)7NH2 (SEQ ID NO: 4), +⅓ MIC ([2]; polymer at ⅓ of its MIC (Table 16)): 0.5 µg/mL
Antibiotic MIC (S. aureus 17314; [4]): 0.25 µg/mL
Antibiotic MIC (S. aureus 17314; +¼ MIC (1.6 μM) C12KKNC12KNH2): 0.25 to 0.5 µg/mL
Antibiotic MIC (S. aureus 17314; +¼ MIC (1.6 μM) C14(9-ene)KKNC12KNH2): 0.25 µg/mL
Antibiotic MIC (S. aureus 17314; [5]): 0.25 µg/mL
Antibiotic MIC (S. aureus 17314; +½ MIC (3.12 μM) C12KKNC12KNH2): 0.25 to 0.5 µg/mL
Antibiotic MIC (S. aureus 17314; +½ MIC (3.12 μM) C14(9-ene)KKNC12KNH2): 0.25 µg/mL
Antibiotic MIC (S. aureus 17314; [6]): 0.5 µg/mL
Antibiotic MIC (S. aureus 17314; +⅓ MIC (2.1 μM) C12KKNC12KNH2): 0.25 to 0.5 µg/mL
Antibiotic MIC (S. aureus 17314; +⅓ MIC (2.1 μM) C14(9-ene)KKNC12KNH2): 0.25 µg/mL
Antibiotic MIC (S. aureus 17314; no polymer (None), Table 9): 0.25 µg/mL
Antibiotic MIC (S. aureus 17314; no polymer (None), Table 10): 0.25 µg/mL
Antibiotic MIC (S. aureus 17314; no polymer (None), Table 11): 0.25 to 0.5 µg/mL
Antibiotic MIC (S. aureus 17314; no polymer (None), Table 12): 0.25 to 0.5 µg/mL
Antibiotic MIC (S. maltophila 748; [7]): 64 µg/mL
Antibiotic MIC (S. maltophila 748; +½ MIC (3.12 μM) C12K(KNC12K)3NH2): 32 µg/mL
Antibiotic MIC (S. maltophila 748; [8]): 64 µg/mL
Antibiotic MIC (S. aureus 43300 [3]; Table 8): 0.25 µg/mL
Antibiotic MIC (S. aureus 43300 [3]; Table 9): 0.25 µg/mL
Antibiotic MIC (S. aureus 43300 [3]; Table 10): 0.25 µg/mL
Antibiotic MIC (S. aureus 43300 [3]; Table 11): 0.5 µg/mL
Antibiotic MIC (S. aureus 43300 [3]; Table 12): 0.5 µg/mL
MIC (MRSA 15903; MRSA 15903, +¼ polymer MIC (1.6 μM) NC12(KNC12K)2NH2): 0.5 µg/mL
MIC (MRSA 15903; MRSA 15903, +½ polymer MIC (3.1 μM) NC12(KNC12K)2NH2): 0.004 µg/mL
MIC (MRSA 15903; MRSA 15903, +⅓ polymer MIC (2.1 μM) NC12(KNC12K)2NH2): 0.25 µg/mL
MIC, ¼ + MIC OAK (MRSA 15903; MRSA 15903, with C12K(KNC10K)3NH2 (SEQ ID NO: 10) at ¼ of its MIC): 1 µg/mL
MIC, ½ + MIC OAK (MRSA 15903; MRSA 15903, with C12K(KNC10K)3NH2 (SEQ ID NO: 10) at ½ of its MIC): 0.25 µg/mL
MIC, ⅓ + MIC OAK (MRSA 15903; MRSA 15903, with C12K(KNC10K)3NH2 (SEQ ID NO: 10) at ⅓ of its MIC): 1 µg/mL
MIC (MRSA 15903; S. aureus CI-15903, +polymer (¼ MIC) C12(5-ene)KKNC12KNH2): 0.5 µg/mL
MIC (MRSA 15903; S. aureus CI-15903, +polymer (½ MIC) C12(5-ene)KKNC12KNH2): 0.06 µg/mL
MIC (MRSA 15903; S. aureus CI-15903, +polymer (⅓ MIC) C12(5-ene)KKNC12KNH2): 0.1 µg/mL
MIC (MRSA 15903; Staphylococcus aureus, MRSA, 24 h, MRSA 15903, antibiotic alone (Table 22), read-out: MIC, Alone): 1 µg/mL
MIC (MRSA 15903; Staphylococcus aureus, MRSA, 24 h, MRSA 15903, antibiotic alone, read-out: MIC): 0.5 µg/mL
MIC (MRSA 15903; Staphylococcus aureus, MRSA, 24 h, S. aureus CI-15903, alone, read-out: MIC): 0.5 µg/mL
Antibiotic MIC (S. aureus 15819; +¼ MIC (1.6 μM) C12(5-ene)KKNC12KNH2): 0.25 µg/mL
Antibiotic MIC (S. aureus 15819; [7]): 0.5 µg/mL
Antibiotic MIC (S. aureus 15819; +¼ MIC (1.6 μM) C12KKNC12KNH2): 0.5 µg/mL
Antibiotic MIC (S. aureus 15819; +½ MIC (3.12 μM) C12KKNC12KNH2): 0.5 µg/mL
Antibiotic MIC (S. aureus 15819; [8]): 0.25 µg/mL
Antibiotic MIC (S. aureus 15819; +⅓ MIC (2.1 μM) C12KKNC12KNH2): 0.5 µg/mL
Antibiotic MIC (S. aureus 15819; no polymer (None), Table 8): 0.25 µg/mL
Antibiotic MIC (S. aureus 15819; no polymer (None), Table 11): 0.5 µg/mL
Antibiotic MIC (S. aureus 15819; no polymer (None), Table 13): 0.5 µg/mL
Antibiotic MIC (E. coli 14182; +¼ MIC C12K(NC8K)5NH2): 32 µg/mL
Antibiotic MIC (E. coli 14182; +½ MIC C12K(NC8K)5NH2): 8 to 16 µg/mL
Antibiotic MIC (E. coli 14182; +⅓ MIC C12K(NC8K)5NH2): 32 µg/mL
Antibiotic MIC, None (E. coli 14182; antibiotic alone (Table 15)): 32 to 64 µg/mL
Antibiotic MIC (E. coli 14182; no polymer (None), Table 14): 32 to 64 µg/mL
Antibiotic MIC in presence of C12K(NC8K)7NH2 (SEQ ID NO: 4), +¼ MIC (E. coli 14182; polymer at ¼ of its MIC): 32 µg/mL
Antibiotic MIC in presence of C12K(NC8K)7NH2 (SEQ ID NO: 4), +½ MIC (E. coli 14182; polymer at ½ of its MIC): 8 to 16 µg/mL
Antibiotic MIC in presence of C12K(NC8K)7NH2 (SEQ ID NO: 4), +⅓ MIC (E. coli 14182; polymer at ⅓ of its MIC): 32 µg/mL
